Results taken from publication PMC7215373, “Design, Synthesis, and Anticancer Evaluation of Novel Indole Derivatives of Ursolic Acid as Potential Topoisomerase II Inhibitors” (International Journal of Molecular Sciences, 2020).
Like-named read-outs stand apart in the source and are kept apart here.

Tests used:
SMMC-7721 cells [1] = test: MTT cytotoxicity assay, SMMC-7721; format: cell-based, human; details: Homo sapiens, SMMC-7721, 48 h, 48 h exposure
Procedure: (§1) The in vitro cytotoxic activities of synthesized compounds were evaluated against two human hepatocarcinoma cell lines (SMMC-7721 and HepG2) and the human normal hepatocyte cell line (LO2) via MTT assay. All tested compounds were dissolved in DMSO and the stock solutions were diluted by DMEM medium before treatment of the cultured cells. […] Cell lines were obtained from American Tissue Culture Collection (ATCC). Briefly, different tumor cells were grown in DMEM medium supplemented with 10% fetal bovine serum, penicillin (100 U/mL), and streptomycin (50 μg/mL). Cells were harvested at log phase of growth and seeded in 96-well plates (100 μL/well at a density of 2 × 10^5 cells/mL). After 24 h incubation at 37 °C and 5% CO2 to allow cell attachment, cultures were exposed to various concentrations of the isolated compounds for 48 h. Finally, MTT solution (2.5 mg/mL in PBS) was added (40 μL/well). Plates were further incubated for 4 h at 37 °C, and the formazan crystals formed were dissolved by adding 150 μL/well of DMSO. Absorption at 570 nm was measured with an ELISA plate reader. […] Doxorubicin, camptothecin, and etoposide (VP-16) were co-assayed as positive controls.

HepG2 cells [2] = test: MTT cytotoxicity assay, HepG2; format: cell-based, human; details: Homo sapiens, HepG2, 48 h, 48 h exposure
Procedure: as §1

LO2 cells = test: MTT cytotoxicity assay, normal hepatocyte LO2; format: cell-based; details: Homo sapiens, L02, 48 h exposure, normal hepatocyte cell line
Procedure: as §1

DNA topoisomerase I = molecular target: T1, DNA topoisomerase I (Bos taurus, UniProt F1MN93); test: Topoisomerase I relaxation assay (supercoiled pBR322); format: biochemical; details: for inhibition at 100 µM: 100 μM compound, read-out: Topo I Inhibition (%) 100 μM
T1 construct: purchased TaKaRa, Kyoto, Japan
T1 sequence (F1MN93 1-767): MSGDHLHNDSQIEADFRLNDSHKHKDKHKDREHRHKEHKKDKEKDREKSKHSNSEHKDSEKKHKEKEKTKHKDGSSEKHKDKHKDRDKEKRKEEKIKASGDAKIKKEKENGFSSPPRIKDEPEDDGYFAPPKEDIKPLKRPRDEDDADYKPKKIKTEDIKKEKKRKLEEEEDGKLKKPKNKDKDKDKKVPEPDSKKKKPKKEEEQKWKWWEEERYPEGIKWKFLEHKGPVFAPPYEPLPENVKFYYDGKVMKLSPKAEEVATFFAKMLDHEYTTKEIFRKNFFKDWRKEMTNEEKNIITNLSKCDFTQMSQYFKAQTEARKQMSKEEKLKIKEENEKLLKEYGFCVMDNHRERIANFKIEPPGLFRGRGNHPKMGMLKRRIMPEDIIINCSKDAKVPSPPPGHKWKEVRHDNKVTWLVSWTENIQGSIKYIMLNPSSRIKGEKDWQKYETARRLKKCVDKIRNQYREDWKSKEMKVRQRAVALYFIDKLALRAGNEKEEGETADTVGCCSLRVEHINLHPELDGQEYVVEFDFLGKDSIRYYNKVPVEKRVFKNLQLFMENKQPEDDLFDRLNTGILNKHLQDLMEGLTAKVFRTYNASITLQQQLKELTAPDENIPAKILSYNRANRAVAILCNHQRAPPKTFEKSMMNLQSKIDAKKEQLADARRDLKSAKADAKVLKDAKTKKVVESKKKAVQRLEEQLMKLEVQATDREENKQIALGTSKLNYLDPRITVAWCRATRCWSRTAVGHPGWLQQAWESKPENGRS
Procedure: The effect of the tested compounds on Topo I and II activities were evaluated by Topo I/II relaxation assays. The reaction products, relaxed DNA could be distinguished from supercoiled DNA by gel electrophoresis and visualized using gel imaging system. The activity of DNA topoisomerase I (TaKaRa, Kyoto, Japan) was determined by measuring the relaxation of supercoiled DNA pBR322 [32]. Camptothecin was used as a positive control. The reaction mixture was prepared according to the manufacture's protocol, and incubated at 37 °C for 30 min. The reactions were terminated by adding dye solution containing 1% SDS, 0.02% bromophenol blue and 50% glycerol. The mixtures were applied to 1% agarose gel and subjected to electrophoresis for 1 h, in 1× TAE buffer (40 mM Tris-acetate, 1 mM EDTA). Gels were stained for 30 min in 60 mL 1× TAE buffer with ethidium bromide (0.5 μg/mL). DNA bands were visualized by transillumination with UV light and then photographed by a Gel Doc XR+ System (BIO-RAD, Hercules, CA, USA).

Human Topoisomerase IIα = molecular target: T2, Human Topoisomerase IIα (Homo sapiens, UniProt P11388); test: Topoisomerase II relaxation assay (supercoiled pBR322); format: biochemical; details: for inhibition at 20 µM: 20 μM compound, read-out: Topo II Inhibition (%) 20 μM; for inhibition at 100 µM: 100 μM compound, read-out: Topo II Inhibition (%) 100 μM
T2 construct: purchased USB, Affymetrix, Waltham, MA, USA
Procedure: The effect of the tested compounds on Topo I and II activities were evaluated by Topo I/II relaxation assays. The reaction products, relaxed DNA could be distinguished from supercoiled DNA by gel electrophoresis and visualized using gel imaging system. Human Topoisomerase IIα activity was detected by measuring the relaxation of supercoiled pBR322 plasmid DNA [22]. […] For inhibition studies, the compounds were pre-incubated with human Topo IIα and DNA for 15 min. Compounds were used at the appropriate concentrations by dissolving in 2% (v/v) DMSO. DMSO didn't show detrimental effect on the enzyme activity at concentration up to 2% (v/v). Reaction mixture was incubated at 37 °C for 30 min and stopped by the addition of 7 mM EDTA. Reaction product was mixed with DNA loading dye and electrophoresed on 1% TAE-Agarose. The gel was stained with ethidium bromide (0.5 μg/mL) for 30 min, destained twice in 1× TAE buffer, and then visualized using a BIO-RAD Gel Doc XR+ System. Etoposide (VP-16) was co-assayed as a positive control.

SMMC-7721 cells [3] = system: SMMC-7721 cells; parameters: method as in PMID 25537271; details: earlier in vitro cytotoxic assay; read-out: IC50 against SMMC-7721; cited from earlier work
HepG2 cells [4] = system: HepG2 cells; parameters: method as in PMID 25537271; details: earlier in vitro cytotoxic assay; read-out: IC50 against HepG2; cited from earlier work

T2 sequence (P11388 whole entry): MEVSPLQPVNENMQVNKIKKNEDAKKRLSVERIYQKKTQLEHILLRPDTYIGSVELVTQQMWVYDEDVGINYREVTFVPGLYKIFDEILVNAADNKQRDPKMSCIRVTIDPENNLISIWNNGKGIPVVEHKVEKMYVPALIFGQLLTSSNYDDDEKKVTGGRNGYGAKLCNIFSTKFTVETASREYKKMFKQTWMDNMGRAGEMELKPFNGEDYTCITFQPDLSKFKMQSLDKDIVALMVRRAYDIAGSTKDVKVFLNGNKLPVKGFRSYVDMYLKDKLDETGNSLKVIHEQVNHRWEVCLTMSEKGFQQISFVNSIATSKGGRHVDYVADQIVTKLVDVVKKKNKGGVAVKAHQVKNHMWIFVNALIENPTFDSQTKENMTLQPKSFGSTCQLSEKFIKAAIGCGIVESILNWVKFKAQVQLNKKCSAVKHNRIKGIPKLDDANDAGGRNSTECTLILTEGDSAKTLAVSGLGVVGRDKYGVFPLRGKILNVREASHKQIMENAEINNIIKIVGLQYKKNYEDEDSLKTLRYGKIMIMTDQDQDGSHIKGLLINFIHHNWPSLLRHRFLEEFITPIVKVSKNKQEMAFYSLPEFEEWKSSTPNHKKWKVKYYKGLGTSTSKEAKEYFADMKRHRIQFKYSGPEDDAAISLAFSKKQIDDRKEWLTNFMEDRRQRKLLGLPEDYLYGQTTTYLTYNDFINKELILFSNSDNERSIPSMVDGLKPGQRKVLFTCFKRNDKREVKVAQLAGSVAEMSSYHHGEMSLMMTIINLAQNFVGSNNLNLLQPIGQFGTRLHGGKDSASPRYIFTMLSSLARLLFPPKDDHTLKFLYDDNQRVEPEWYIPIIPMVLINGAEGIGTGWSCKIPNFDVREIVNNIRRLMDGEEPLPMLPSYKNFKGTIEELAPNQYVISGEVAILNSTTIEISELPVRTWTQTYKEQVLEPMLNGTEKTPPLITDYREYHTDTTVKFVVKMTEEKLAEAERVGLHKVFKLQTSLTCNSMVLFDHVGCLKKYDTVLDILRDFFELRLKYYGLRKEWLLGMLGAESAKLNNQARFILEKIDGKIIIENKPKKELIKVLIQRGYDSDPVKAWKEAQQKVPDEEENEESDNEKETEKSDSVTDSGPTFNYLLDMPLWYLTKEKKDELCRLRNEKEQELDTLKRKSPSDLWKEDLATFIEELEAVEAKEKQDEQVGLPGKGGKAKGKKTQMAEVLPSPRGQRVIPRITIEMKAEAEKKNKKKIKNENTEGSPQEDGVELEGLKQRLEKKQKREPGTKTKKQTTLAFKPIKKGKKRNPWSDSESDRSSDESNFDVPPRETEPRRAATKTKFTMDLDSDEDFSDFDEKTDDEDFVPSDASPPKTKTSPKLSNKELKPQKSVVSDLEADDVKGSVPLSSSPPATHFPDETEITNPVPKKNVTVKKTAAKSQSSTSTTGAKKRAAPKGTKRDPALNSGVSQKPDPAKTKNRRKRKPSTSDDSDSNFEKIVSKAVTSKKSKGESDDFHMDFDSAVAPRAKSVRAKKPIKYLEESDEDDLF

Row | inhibition at 20 µM (DNA topoisomerase I; 20 μM compound, read-out: Topo I Inhibition (%) 20 μM) [%] | inhibition at 100 µM (DNA topoisomerase I) [%] | inhibitory activity to Topo I (DNA topoisomerase I; preliminary screening) | inhibition at 20 µM (Human Topoisomerase IIα) [%] | inhibition at 100 µM (Human Topoisomerase IIα) [%] | inhibitory activity to Topo IIα (Human Topoisomerase IIα; preliminary screening) | melting point [°C] | Structure (SMILES) | IC50 (SMMC-7721 cells [1]) [µM] | IC50 (HepG2 cells [2]) [µM] | IC50 (LO2 cells) [µM] | IC50 (SMMC-7721 cells [3]) [nM] | IC50 (HepG2 cells [4]) [nM]
1 | 9 | 34.2 | considerable inhibitory activity | 38.2 | 72.5 | considerable inhibitory activity | – | Cc1ccc2[nH]c3c(c2c1)C[C@@]1(C)C(CC[C@]2(C)C1CC=C1C4[C@@H](C)[C@H](C)CC[C@]4(C(=O)NCCCN(C)C)CC[C@]12C)C3(C)C (stereo partly shown) [5b, N-(3-(Dimethylamino)propyl)-5′-methyl-1′H-ursa-2,12-dieno[3,2-b]indol-28-carboxamide] | 1.08 ± 0.22 | 1.26 ± 0.17 | 20.7 ± 1.73 | ~1000 | ~1000
2 | – | 0 | – | 32.8 | 72.5 | – | 121 to 123 | Cc1ccc2[nH]c3c(c2c1)C[C@@]1(C)C(CC[C@]2(C)C1CC=C1C4[C@@H](C)[C@H](C)CC[C@]4(C(=O)NCCCCN4CCCCC4)CC[C@]12C)C3(C)C (stereo partly shown) [6d, N-(4-(Piperidin-1-yl)butyl)-5′-methyl-1′H-ursa-2,12-dieno[3,2-b]indol-28-carboxamide] | 2.72 ± 0.31 | 2.31 ± 0.21 | 18.7 ± 1.36 | – | –
3 | – | 0 | – | 26.8 | 63.3 | – | 104 to 105 | Cc1ccc2[nH]c3c(c2c1)C[C@@]1(C)C(CC[C@]2(C)C1CC=C1C4[C@@H](C)[C@H](C)CC[C@]4(C(=O)NCCN4CCOCC4)CC[C@]12C)C3(C)C (stereo partly shown) [4e, N-(2-Morpholinoethyl)-5′-methyl-1′H-ursa-2,12-dieno[3,2-b]indol-28-carboxamide] | 7.82 ± 0.78 | 10.7 ± 2.09 | > 50 | – | –
